Assay results: ChEMBL document CHEMBL1122891, “Substituted 5H-dibenz[b,g]-1,4-oxazocines and related amino acids with antiinflammatory activity” (1985)

Experiments:
Type in all cases: functional
[1] = tested on: Rattus norvegicus; test: Percent reduction in swelling of the left hind paw in rat when 100 mg/kg of dose was injected perorally which was determined in adjuvant arthritis test; details: route oral
[2] = tested on: Rattus norvegicus; test: Percent reduction in swelling of the left hind paw in rat when 10 mg/kg of dose was injected perorally which was determined in adjuvant arthritis test; details: route oral
[3] = tested on: Rattus norvegicus; test: Percent reduction in swelling of the left hind paw in rat determined in adjuvant arthritis test, 50 mg/kg dose perorally; details: route oral
[4] = species on record: Rattus norvegicus; test: Activity relative to fenclofenac determined in adjuvant arthritis test
[5] = tested on: Rattus norvegicus; test: Percent reduction in swelling of the left hind paw in rat determined in adjuvant arthritis test, 25 mg/kg dose was perorally; details: route oral
[6] = tested on: Rattus norvegicus; test: Minimum ulcerogenic dose was evaluated 24 hours after peroral administration; value may range from 100-200
[7] = tested on: Rattus norvegicus; test: Percent reduction in swelling of the left hind paw in rat when 75 mg/kg of dose was injected perorally which was determined in adjuvant arthritis test; details: route oral
[8] = tested on: Rattus norvegicus; test: Minimum ulcerogenic dose was evaluated 24 hours after peroral administration
[9] = tested on: Rattus norvegicus; test: Minimum ulcerogenic dose was evaluated 24 hours after peroral administration; value may range from 25-50
[10] = tested on: Rattus norvegicus; test: Minimum ulcerogenic dose was evaluated 24 hours after peroral administration; value may range from 50-100
[11] = tested on: Rattus norvegicus; test: Percent reduction in swelling of the left hind paw in rat when 25 mg/kg of dose was injected perorally which was determined in adjuvant arthritis test; details: route oral
[12] = tested on: Rattus norvegicus; test: Minimum ulcerogenic dose was evaluated 24 hours after peroral administration; value may range from 400-800

Nc1cc(Cl)ccc1Oc1ccccc1CC(=O)O
Reduction [1]: 4%

Cc1cccc([N+](=O)[O-])c1Oc1ccccc1CC(=O)O
Reduction [2]: 26%

CN1CCc2ccccc2Oc2c(Cl)cccc21
Reduction [3]: 31% | Relative potency [4]: 1.4

O=CN1CCc2ccccc2Oc2c(Cl)cccc21
Reduction [1]: 33%

CCCN1CCc2ccccc2Oc2c(Cl)cc(Cl)cc21
Reduction [3]: 39% | Relative potency [4]: 0.6

C[N+]1([O-])CCc2ccccc2Oc2c(Cl)cc(Cl)cc21 (stereo not drawn)
Reduction [3]: 42% | Relative potency [4]: 2.2

c1ccc2c(c1)CCNc1ccccc1O2
Reduction [3]: 6%

Cc1ccc2c(c1)CCNc1cccc(Cl)c1O2
Reduction [3]: 22%

COc1cc(N)c(Oc2ccccc2CC(=O)O)c(Cl)c1
Reduction [5]: 24%

CCC[N+]1([O-])CCc2ccccc2Oc2c(Cl)cc(Cl)cc21 (stereo not drawn)
Reduction [3]: 36%

Nc1c(Cl)cc(Cl)cc1Oc1ccccc1CC(=O)O
Reduction [2]: 37% | Relative potency [4]: 6.6

O=C(O)Cc1ccccc1Oc1c(Cl)cccc1[N+](=O)[O-]
MUD [6]: 100 mg/kg | Reduction [7]: 45% | Relative potency [4]: 2

O=C(O)Cc1cccc(Cl)c1Oc1c(Cl)cccc1[N+](=O)[O-]
Reduction [5]: 1%

CCCC(=O)N1CCc2ccccc2Oc2c(Cl)cc(Cl)cc21
Reduction [1]: 8%

NNC(=O)N1CCc2ccccc2Oc2c(Cl)cc(Cl)cc21
Reduction [5]: 32% | Relative potency [4]: 0.6

Cc1cc(N)c(Oc2ccccc2CC(=O)O)c(Cl)c1
Reduction [5]: 20%

Nc1ccc(Cl)cc1Oc1ccccc1CC(=O)O
Reduction [5]: 12%

O=C(Cc1ccccc1Oc1c(Cl)cccc1[N+](=O)[O-])OC1OC(=O)c2ccccc21 (stereo not drawn)
MUD [8]: >800 mg/kg | Reduction [3]: 30% | Relative potency [4]: 0.7

Cc1ccc2c(c1)CCNc1cc(Cl)c(Cl)cc1O2
Reduction [3]: 8%

Nc1cc(Br)cc(Br)c1Oc1ccccc1CC(=O)O
MUD [9]: 25 mg/kg | Reduction [5]: 50% | Relative potency [4]: 8.6

Clc1ccc(CN2CCc3ccccc3Oc3c(Cl)cc(Cl)cc32)cc1
Reduction [3]: 10%

Cc1cccc(CC(=O)O)c1Oc1c(Cl)cccc1[N+](=O)[O-]
Reduction [5]: 0%

CCc1cc(Cl)c2c(c1)NCCc1cc(C)ccc1O2
Reduction [1]: 13%

COc1cc(Cl)cc2c1Oc1ccc(C)cc1CCN2
Reduction [7]: 1%

O=C(Cc1ccccc1Oc1c(Cl)cccc1[N+](=O)[O-])NO
Reduction [3]: 36%

COC(=O)Cc1ccccc1Oc1c(Cl)cc(Cl)cc1NC(C)=O
Reduction [5]: 18%

Clc1ccc2c(c1)CCNc1cc(Cl)cc(Cl)c1O2
Reduction [3]: 25% | Relative potency [4]: 0.8

Nc1cccc(Cl)c1Oc1cc(Cl)ccc1CC(=O)O
Reduction [5]: 1%

CCc1cc(N)c(Oc2ccc(C)cc2CC(=O)O)c(F)c1
MUD [6]: 100 mg/kg | Reduction [5]: 1%

O=C(O)Cc1ccccc1Oc1c([N+](=O)[O-])cc(Cl)c(Cl)c1Cl
Reduction [2]: 17% | Relative potency [4]: 0.6

O=C(Cl)N1CCc2ccccc2Oc2c(Cl)cc(Cl)cc21
Reduction [3]: 7%

CCc1cc(N)c(Oc2ccc(C)cc2CC(=O)O)c(Cl)c1
Reduction [5]: 34% | Relative potency [4]: 1

Cc1ccc2c(c1)NCCc1ccccc1O2
Reduction [3]: 0%

CNc1cc(Cl)cc(Cl)c1Oc1ccccc1CC(=O)OC
MUD [10]: 50 mg/kg | Reduction [3]: 36% | Relative potency [4]: 2.5

NC(=O)Cc1ccccc1Oc1c(Cl)cccc1[N+](=O)[O-]
MUD [8]: >800 mg/kg | Reduction [3]: 36% | Relative potency [4]: 1.1

Clc1cc(Cl)c2c(c1)NCCc1ccccc1O2
Reduction [11]: 41% | Relative potency [4]: 2.1

COc1cc(Cl)c2c(c1)NCCc1ccccc1O2
Reduction [3]: 18%

Fc1cccc2c1Oc1ccccc1CCN2
Reduction [3]: 0%

CN1CCc2cc(Cl)ccc2Oc2c(Cl)cccc21
Reduction [3]: 13%

Cc1cc(Cl)c2c(c1)NCCc1ccccc1O2
Reduction [11]: 23%

Clc1ccc2c(c1)NCCc1ccccc1O2
Reduction [3]: 0%

Cc1ccc2c(c1)CCN(C)c1cccc(Cl)c1O2
Reduction [3]: 15%

CC(=O)N1CCc2ccccc2Oc2c(Cl)cc(Cl)cc21
Reduction [7]: 10%

CN1CCc2ccccc2Oc2c(Cl)cc(Cl)cc21
Reduction [3]: 35% | Relative potency [4]: 2.4

Clc1cccc2c1Oc1ccccc1CCN2
Reduction [1]: 33% | Relative potency [4]: 0.2

Clc1ccc2c(c1)Oc1ccccc1CCN2
Reduction [3]: 0%

CCc1cc(Cl)cc(N)c1Oc1ccccc1CC(=O)O
Reduction [2]: 25% | Relative potency [4]: 2.8

CNc1cccc(Cl)c1Oc1ccccc1CCO
MUD [6]: 100 mg/kg | Reduction [2]: 36% | Relative potency [4]: 5

O=C(O)Cc1ccccc1Oc1c([N+](=O)[O-])ccc(Cl)c1Cl
Reduction [5]: 25%

O=[N+]([O-])c1cccc(Cl)c1Oc1ccccc1CCO
MUD [10]: 50 mg/kg | Reduction [1]: 37%

Nc1cccc(Cl)c1Oc1ccccc1CC(=O)OC1OC(=O)c2ccccc21 (stereo not drawn)
Reduction [1]: 36%

Cc1cc(Cl)cc(N)c1Oc1ccccc1CC(=O)O
MUD [9]: 25 mg/kg | Reduction [2]: 34% | Relative potency [4]: 5.6

COC(=O)Cc1ccccc1Oc1c(N)cccc1Cl
Reduction [5]: 35%

Clc1ccc2c(c1)Oc1c(Cl)cccc1NCC2
Reduction [3]: 10%

Cc1cc(N)c(Oc2ccc(Cl)cc2CC(=O)O)c(Cl)c1
Reduction [5]: 32% | Relative potency [4]: 1.4

COC(=O)Cc1ccccc1Oc1c(Cl)cc(Cl)cc1N(C)C
Reduction [2]: 33% | Relative potency [4]: 2.7

Nc1cccc(Cl)c1Oc1ccccc1CC(=O)O
MUD [9]: 25 mg/kg | Reduction [5]: 36% | Relative potency [4]: 3.5

O=C(O)Cc1ccccc1Oc1c(Cl)cc(Cl)cc1[N+](=O)[O-]
Reduction [5]: 36%

CCC(C)c1cc(Cl)c2c(c1)NCCc1cc(C)ccc1O2 (stereo not drawn)
Reduction [3]: 14%

Cc1cc(Cl)cc2c1Oc1ccccc1CCN2
Reduction [3]: 32% | Relative potency [4]: 0.9

Cc1c(Cl)ccc(N)c1Oc1ccccc1CC(=O)O
MUD [6]: 100 mg/kg | Reduction [5]: 34% | Relative potency [4]: 4.1

CNc1cccc(Cl)c1Oc1ccccc1CC(=O)O
MUD [8]: <12.5 mg/kg | Relative potency [4]: 15

Cc1cccc(N)c1Oc1ccccc1CC(=O)O
MUD [12]: 400 mg/kg | Reduction [5]: 32% | Relative potency [4]: 1.9

Cc1ccc2c(c1)CCNc1cc(Cl)cc(Cl)c1O2
Reduction [3]: 17%

Nc1cccc(F)c1Oc1ccccc1CC(=O)O
Reduction [5]: 27%

C[N+]1([O-])CCc2ccccc2Oc2c(Cl)cccc21 (stereo not drawn)
Reduction [5]: 23% | Relative potency [4]: 0.7

CCC(C)c1cc(N)c(Oc2ccc(C)cc2CC(=O)O)c(Cl)c1 (stereo not drawn)
Reduction [2]: 10%

Nc1c(Cl)c(Cl)cc(Cl)c1Oc1ccccc1CC(=O)O
MUD [10]: 50 mg/kg | Reduction [2]: 37% | Relative potency [4]: 11.6

O=C(c1ccc(Cl)cc1)N1CCc2ccccc2Oc2c(Cl)cc(Cl)cc21
Reduction [3]: 0%

CCOC(=O)N1CCc2ccccc2Oc2c(Cl)cc(Cl)cc21
Reduction [2]: 21% | Relative potency [4]: 0.5

Cc1cc(N)c(Oc2ccc(C)cc2CC(=O)O)c(Cl)c1
Reduction [5]: 3%

C/C=C/CN1CCc2ccccc2Oc2c(Cl)cc(Cl)cc21
Reduction [3]: 21%

O=C(O)Cc1ccccc1Oc1c(Cl)cc(Cl)c(Cl)c1[N+](=O)[O-]
Reduction [2]: 30%

Clc1ccc2c(c1)CCNc1cccc(Cl)c1O2
Reduction [3]: 16%

CCN(CC)C(=O)Cc1ccccc1Oc1c(N)cccc1Cl
Reduction [3]: 6%

Nc1cc(Cl)c(Cl)c(Cl)c1Oc1ccccc1CC(=O)O
Reduction [2]: 33% | Relative potency [4]: 8.2

Cc1cc(Cl)cc([N+](=O)[O-])c1Oc1ccccc1CC(=O)O
Reduction [5]: 34% | Relative potency [4]: 3.3

Oc1ccc2c(c1)CCNc1cc(Cl)cc(Cl)c1O2
Reduction [2]: 2%

CC(=O)NNC(=O)N1CCc2ccccc2Oc2c(Cl)cc(Cl)cc21
Reduction [1]: 18%

Nc1ccc(Cl)c(Cl)c1Oc1ccccc1CC(=O)O
Reduction [5]: 33%

Nc1cc(C(F)(F)F)ccc1Oc1ccccc1CC(=O)O
MUD [12]: 400 mg/kg | Reduction [1]: 36% | Relative potency [4]: 2.1

C=CCN1CCc2ccccc2Oc2c(Cl)cc(Cl)cc21
Reduction [3]: 18%

Cc1ccc(Oc2cc(Cl)c(Cl)cc2N)c(CC(=O)O)c1
Reduction [5]: 10%

CNc1cccc(C)c1Oc1ccccc1CC(=O)O
MUD [9]: 25 mg/kg | Reduction [5]: 46% | Relative potency [4]: 6.5

Clc1cc(Cl)c2c(c1)N(Cc1ccccc1)CCc1ccccc1O2
Reduction [2]: 2%

COC(=O)Cc1ccccc1Oc1c(Cl)cccc1[N+](=O)[O-]
Reduction [5]: 31%

Cc1cc(Cl)c2c(c1)NCCc1cc(Cl)ccc1O2
Reduction [1]: 21% | Relative potency [4]: 0.5

Nc1cccc(N)c1Oc1ccccc1CC(=O)O
Reduction [5]: 5%

Cc1c(Cl)c(C)c2c(c1Cl)Oc1ccccc1CCN2
Reduction [3]: 6%

O=C(O)Cc1ccccc1Oc1ccccc1[N+](=O)[O-]
Reduction [3]: 1%

O=C(O)Cc1ccccc1Oc1ccc(C(F)(F)F)cc1[N+](=O)[O-]
Reduction [1]: 29%

O=C(O)Cc1ccccc1Oc1cc(Cl)cc(Cl)c1[N+](=O)[O-]
Reduction [2]: 34% | Relative potency [4]: 2.9

CC(C)(C)OC(=O)Cc1ccccc1Oc1c(Cl)cccc1[N+](=O)[O-]
Reduction [3]: 21%

NC(=O)Cc1ccccc1Oc1c(N)cccc1Cl
Reduction [3]: 14%

CNC(=O)N1CCc2ccccc2Oc2c(Cl)cc(Cl)cc21
Reduction [2]: 4%

Clc1ccc2c(c1)CCNc1c(Cl)ccc(Cl)c1O2
Reduction [3]: 14%

CNc1cc(Cl)cc(C)c1Oc1ccccc1CC(=O)O
Reduction [2]: 28% | Relative potency [4]: 2.8
